# From paper PMC8822125, “RW-BP100-4D, a Promising Antimicrobial Candidate With Broad-Spectrum Bactericidal Activity” (Frontiers in Microbiology, 2022)
# Where a SMILES comes first, the peptide text is derived from it.
# Tests used:
# [1] = test system: MAC-T cells; details: peptide 150 μg/mL, 24 h, WST-1, mean ± SD, three repeats
# [2] = test system: Staphylococcus aureus ATCC29213; experiment: MIC/MBC, broth microdilution; format: cell-based; details: Table 1; broth microdilution CLSI M100-S25, MH broth, 37°C, 18 h, three independent repeats
# [3] = test system: RAW264.7 cells; details: peptide 150 μg/mL, 24 h, WST-1, mean ± SD, three repeats
# [4] = test system: Escherichia coli ATCC25922; details: Table 1; broth microdilution CLSI M100-S25, MH broth, 37°C, 18 h, three independent repeats
# [5] = test system: sheep red blood cells; details: sheep red blood cells in PBS, 37°C, 1 h, OD576, relative to melittin, mean ± SD, three repeats; for Hemolytic rate, 50 μg/mL: 50 μg/mL peptide; for Hemolytic rate, 100 μg/mL: 100 μg/mL peptide; for Hemolytic rate, 150 μg/mL: 150 μg/mL peptide; for Hemolytic rate, 300 μg/mL: 300 μg/mL peptide;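 as to all read-outs here: hemolysis expressed in % from supernatant absorbance, with PBS-treated cells as 0% baseline and melittin as 100%, peptide mixed 1:1 with an 8% v/v erythrocyte suspension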
# [6] = test system: various microorganisms; experiment: MIC/MBC, summary statements over several strains; format: cell-based; details: summary of Table 1
SMILES,"Cell survival rate, MAC-T [1] [%]",MIC Staphylococcus aureus ATCC29213 [2] [µg/mL],"Cell survival rate, RAW264.7 [3] [%]",MIC Escherichia coli ATCC25922 [4] [µg/mL],"Hemolytic rate, 50 μg/mL [5] [%]","Hemolytic rate, 100 μg/mL [5] [%]","Hemolytic rate, 150 μg/mL [5] [%]","Hemolytic rate, 300 μg/mL [5] [%]",MIC against S. aureus ATCC29213 and E. coli ATCC25922 (both strains together) [6] [µg/mL]
CC[C@H](C)[C@H](NC(=O)[C@H](CCCNC(=N)N)NC(=O)[C@H](CCCNC(=N)N)NC(=O)[C@H](Cc1ccccc1)NC(=O)[C@H](CC(C)C)NC(=O)[C@H](CCCNC(=N)N)NC(=O)[C@H](N)CCCNC(=N)N)C(=O)N[C@@H](CC(C)C)C(=O)N[C@@H](CCCNC(=N)N)C(=O)N[C@@H](Cc1c[nH]c2ccccc12)C(=O)N[C@@H](CC(C)C)C(N)=O [RW-BP100-1D] (HELM PEPTIDE1{[dR].R.L.F.R.R.I.L.R.W.L.[am]}$$$$V2.0),52.71 ± 5.68,25,9.55 ± 2.45,12,4.61 ± 0.47,5.49 ± 0.23,39.81 ± 0.20,52.88 ± 3.06,
CC[C@H](C)[C@H](NC(=O)[C@H](CCCNC(=N)N)NC(=O)[C@H](CCCNC(=N)N)NC(=O)[C@H](Cc1ccccc1)NC(=O)[C@H](CC(C)C)NC(=O)[C@@H](CCCNC(=N)N)NC(=O)[C@@H](N)CCCNC(=N)N)C(=O)N[C@@H](CC(C)C)C(=O)N[C@@H](CCCNC(=N)N)C(=O)N[C@@H](Cc1c[nH]c2ccccc12)C(=O)N[C@@H](CC(C)C)C(N)=O [RW-BP100-2D] (HELM PEPTIDE1{R.[dR].L.F.R.R.I.L.R.W.L.[am]}$$$$V2.0),63.07 ± 3.23,25,6.83 ± 5.69,12,4.83 ± 1.08,5.99 ± 0.79,39.16 ± 1.75,62.12 ± 6.27,
CC[C@H](C)[C@H](NC(=O)[C@H](CCCNC(=N)N)NC(=O)[C@H](CCCNC(=N)N)NC(=O)[C@H](Cc1ccccc1)NC(=O)[C@@H](CC(C)C)NC(=O)[C@H](CCCNC(=N)N)NC(=O)[C@@H](N)CCCNC(=N)N)C(=O)N[C@@H](CC(C)C)C(=O)N[C@@H](CCCNC(=N)N)C(=O)N[C@@H](Cc1c[nH]c2ccccc12)C(=O)N[C@@H](CC(C)C)C(N)=O [RW-BP100-3D] (HELM PEPTIDE1{R.R.[dL].F.R.R.I.L.R.W.L.[am]}$$$$V2.0),50.63 ± 2.36,25,7.69 ± 7.89,50,3.49 ± 0.76,4.04 ± 0.20,38.13 ± 3.12,55.73 ± 5.27,
CC[C@H](C)[C@H](NC(=O)[C@H](CCCNC(=N)N)NC(=O)[C@@H](CCCNC(=N)N)NC(=O)[C@H](Cc1ccccc1)NC(=O)[C@H](CC(C)C)NC(=O)[C@H](CCCNC(=N)N)NC(=O)[C@@H](N)CCCNC(=N)N)C(=O)N[C@@H](CC(C)C)C(=O)N[C@@H](CCCNC(=N)N)C(=O)N[C@@H](Cc1c[nH]c2ccccc12)C(=O)N[C@@H](CC(C)C)C(N)=O [RW-BP100-5D] (HELM PEPTIDE1{R.R.L.F.[dR].R.I.L.R.W.L.[am]}$$$$V2.0),77.84 ± 5.63,6,39.05 ± 1.65,6,1.26 ± 0.54,2.49 ± 0.72,29.72 ± 0.94,51.41 ± 4.64,3 to 12
CC[C@H](C)[C@H](NC(=O)[C@@H](CCCNC(=N)N)NC(=O)[C@H](CCCNC(=N)N)NC(=O)[C@H](Cc1ccccc1)NC(=O)[C@H](CC(C)C)NC(=O)[C@H](CCCNC(=N)N)NC(=O)[C@@H](N)CCCNC(=N)N)C(=O)N[C@@H](CC(C)C)C(=O)N[C@@H](CCCNC(=N)N)C(=O)N[C@@H](Cc1c[nH]c2ccccc12)C(=O)N[C@@H](CC(C)C)C(N)=O [RW-BP100-6D] (HELM PEPTIDE1{R.R.L.F.R.[dR].I.L.R.W.L.[am]}$$$$V2.0),58.87 ± 3.45,12,5.92 ± 2.63,12,2.33 ± 1.51,3.25 ± 0.23,32.57 ± 1.20,55.81 ± 2.87,3 to 12
CC[C@@H](C)[C@@H](NC(=O)[C@H](CCCNC(=N)N)NC(=O)[C@H](CCCNC(=N)N)NC(=O)[C@H](Cc1ccccc1)NC(=O)[C@H](CC(C)C)NC(=O)[C@H](CCCNC(=N)N)NC(=O)[C@@H](N)CCCNC(=N)N)C(=O)N[C@@H](CC(C)C)C(=O)N[C@@H](CCCNC(=N)N)C(=O)N[C@@H](Cc1c[nH]c2ccccc12)C(=O)N[C@@H](CC(C)C)C(N)=O [RW-BP100-7D] (HELM PEPTIDE1{R.R.L.F.R.R.[dI].L.R.W.L.[am]}$$$$V2.0),96.41 ± 3.75,25,93.74 ± 1.25,25,0.53 ± 1.12,1.11 ± 0.19,16.17 ± 3.36,45.65 ± 5.13,
CC[C@H](C)[C@H](NC(=O)[C@H](CCCNC(=N)N)NC(=O)[C@H](CCCNC(=N)N)NC(=O)[C@H](Cc1ccccc1)NC(=O)[C@H](CC(C)C)NC(=O)[C@H](CCCNC(=N)N)NC(=O)[C@@H](N)CCCNC(=N)N)C(=O)N[C@@H](CC(C)C)C(=O)N[C@H](CCCNC(=N)N)C(=O)N[C@@H](Cc1c[nH]c2ccccc12)C(=O)N[C@@H](CC(C)C)C(N)=O [RW-BP100-9D] (HELM PEPTIDE1{R.R.L.F.R.R.I.L.[dR].W.L.[am]}$$$$V2.0),92.50 ± 2.36,25,91.33 ± 5.63,25,0.63 ± 0.24,1.53 ± 0.09,18.14 ± 0.20,45.18 ± 2.41,
CC[C@H](C)[C@H](NC(=O)[C@H](CCCNC(=N)N)NC(=O)[C@H](CCCNC(=N)N)NC(=O)[C@H](Cc1ccccc1)NC(=O)[C@H](CC(C)C)NC(=O)[C@H](CCCNC(=N)N)NC(=O)[C@@H](N)CCCNC(=N)N)C(=O)N[C@@H](CC(C)C)C(=O)N[C@@H](CCCNC(=N)N)C(=O)N[C@H](Cc1c[nH]c2ccccc12)C(=O)N[C@@H](CC(C)C)C(N)=O [RW-BP100-10D] (HELM PEPTIDE1{R.R.L.F.R.R.I.L.R.[dW].L.[am]}$$$$V2.0),94.41 ± 4.26,50,92.19 ± 6.32,50,0.31 ± 0.37,1.28 ± 0.19,19.20 ± 2.16,45.08 ± 4.70,
